# Assay results as given in the supplement of paper PMC10331698.
# ± gives the standard deviation of the averaged measurements.
# Legend:
# Assay in all cases: level (log10 ratio to DMSO vehicle control); higher = higher biomarker level / cell amount than vehicle control
# Settings in all cases: in DMSO
# [1] = compound: O=S(=O)(O)C(F)(F)C(F)(F)C(F)(F)C(F)(F)C(F)(F)C(F)(F)F [Perfluorohexanesulfonic acid]
# Method: (§1)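 BioMAP Diversity Plus panel of 12 human primary cell co-culture systems (3C, 4H, LPS, SAg, BT, BF4T, BE3C, CASM3C, HDF3CGF, KF3CT, MyoF, Mphg). Compounds were added 1 h before stimulation and left for 24 h (MyoF 48 h; BT 72 h for soluble read-outs or 6 d for IgG). Biomarkers were read by ELISA, cytotoxicity by SRB, PBMC viability and proliferation by Alamar Blue. Each well value was divided by the mean of 8 DMSO control wells on the same plate and log10 transformed; duplicate blinded samples were tested at 4 concentrations.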
# [2] = compound: FC(F)(F)C(F)(F)C(F)(F)C(F)(F)C(F)(F)C(F)(F)C(F)(F)C(F)(F)CCS [2-(Perfluorooctyl)ethanthiol]
# Method: as §1
# [3] = compound: O=C(O)C(F)(F)C(F)(F)C(F)(F)C(F)(F)C(F)(F)C(F)(F)C(F)(F)C(F)(F)C(F)(F)F [Perfluorodecanoic acid]
# Method: as §1
# [4] = compound: O=C(O)C(F)(F)C(F)(F)C(F)(F)C(F)(F)C(F)(F)C(F)(F)F [Perfluoroheptanoic acid]
# Method: as §1
# [5] = compound: O=C(O)C(F)(F)C(F)(F)C(F)F [4H-Perfluorobutanoic acid]
# Method: as §1
# [6] = compound: NC(=O)C(F)(F)C(F)(F)F [Pentafluoropropionamide]
# Method: as §1
# [7] = compound: O=C(O)C(F)(F)C(F)(F)F [Perfluoropropanoic acid]
# Method: as §1
Test System,level (log10) ([1]; 6700 nM),level (log10) ([1]; 20000 nM),level (log10) ([1]; 60000 nM),level (log10) ([2]; 6700 nM),level (log10) ([2]; 20000 nM),level (log10) ([3]; 6700 nM),level (log10) ([3]; 20000 nM),level (log10) ([4]; 6700 nM),level (log10) ([4]; 20000 nM),level (log10) ([4]; 60000 nM),level (log10) ([5]; 6700 nM),level (log10) ([5]; 20000 nM),level (log10) ([5]; 60000 nM),level (log10) ([6]; 6700 nM),level (log10) ([6]; 20000 nM),level (log10) ([6]; 60000 nM),level (log10) ([7]; 6700 nM),level (log10) ([7]; 20000 nM),level (log10) ([7]; 60000 nM)
LPS:CD142/Tissue Factor,0.0055 ± 0.023,0.001 ± 0.0028,0 ± 0.028,0.0455 ± 0.081,0.097 ± 0.065,0.018 ± 0.0085,-0.011 ± 0.0028,-0.0025 ± 0.005,-0.007 ± 0.013,0.0245 ± 0.005,-0.0205 ± 0.032,0.015 ± 0.033,0.0185 ± 0.0092,0.0095 ± 0.015,-0.022 ± 0.034,-0.0425 ± 0.046,0.001 ± 0.0028,0.0055 ± 0.028,0.0235 ± 0.0078
LPS:IL-1alpha,-0.001 ± 0.0085,0.0075 ± 0.029,0.0365 ± 0.026,-0.045 ± 0.0042,-0.012 ± 0.055,0.0275 ± 0.016,-0.0125 ± 0.0092,-0.002 ± 0.0057,-0.0265 ± 0.0078,0.006 ± 0.047,-0.038 ± 0.0071,-0.02 ± 0.0085,-0.0065 ± 0.023,0.0225 ± 0.036,-0.0175 ± 0.019,0.0255 ± 0.047,-0.047 ± 0.033,-0.0405 ± 0.037,-0.0165 ± 0.032
BF4T:CCL2/MCP-1,0.028 ± 0.045,-0.0075 ± 0.013,-0.042 ± 0.037,-0.0265 ± 0.029,-0.031 ± 0.03,-0.043 ± 0.03,-0.484 ± 0.11,0.0155 ± 0.056,0.019 ± 0.067,0.0365 ± 0.12,-0.012 ± 0.0085,0.004 ± 0.011,0.0475 ± 0.069,-0.0075 ± 0.0035,-0.0195 ± 0.00071,0.001 ± 0.025,-0.0125 ± 0.011,-0.0095 ± 0.005,0.061 ± 0.083
4H:CD87/uPAR,-0.002 ± 0.023,0.0065 ± 0.013,-0.0055 ± 0.022,-0.0055 ± 0.0021,-0.0165 ± 0.0021,0.0115 ± 0.021,0.0135 ± 0.0092,0.0355 ± 0.042,-0.007 ± 0.054,0.061 ± 0.14,-0.0265 ± 0.025,-0.0065 ± 0.0035,-0.004 ± 0.044,0.009 ± 0.02,-0.0185 ± 0.00071,-0.009 ± 0.0099,-0.0325 ± 0.025,-0.014 ± 0.011,0.0085 ± 0.016
BF4T:CD90,-0.001 ± 0.014,-0.0115 ± 0.0078,-0.0305 ± 0.0064,-0.003 ± 0.0028,-0.0065 ± 0.005,0.003 ± 0.0042,-0.0955 ± 0.0064,-0.01 ± 0.0042,-0.001 ± 0.0014,-0.0005 ± 0.0021,0.0045 ± 0.0035,0.0095 ± 0.011,0.01 ± 0.028,-0.0025 ± 0.0064,0.0005 ± 0.0064,-0.0045 ± 0.015,-0.003 ± 0.014,0.003 ± 0.0014,0 ± 0.016
4H:CD62P/P-selectin,0.008 ± 0.058,0.0555 ± 0.043,0.112 ± 0.066,0.019 ± 0.0071,-0.017,0.087 ± 0.0071,0.093 ± 0.033,0.007 ± 0.018,0.0035 ± 0.016,0.0605 ± 0.05,-0.0185 ± 0.042,0.0005 ± 0.057,-0.011 ± 0.04,-0.023 ± 0.054,-0.0265 ± 0.0078,-0.0475 ± 0.03,-0.0215 ± 0.0021,-0.012 ± 0.0042,0.0105 ± 0.026
BF4T:uPA,-0.002 ± 0.027,-0.007 ± 0.02,-0.0035 ± 0.037,-0.031 ± 0.011,-0.0285 ± 0.039,0.015 ± 0.011,-0.235 ± 0.043,-0.017 ± 0.0057,-0.0115 ± 0.012,0.009 ± 0.0085,0.002 ± 0.016,0.019 ± 0.0014,0.0105 ± 0.0021,-0.013 ± 0.0085,-0.0075 ± 0.0078,0.0045 ± 0.018,-0.0035 ± 0.033,0.0105 ± 0.037,0.019 ± 0.033
SAg:CCL2/MCP-1,0.015 ± 0.0071,0.0095 ± 0.018,0.017,-0.0085 ± 0.019,0.017 ± 0.0028,0.0065 ± 0.0064,-0.017 ± 0.0014,-0.013 ± 0.0085,0.0215 ± 0.011,0.0215 ± 0.013,-0.011 ± 0.038,-0.0085 ± 0.04,-0.0065 ± 0.081,-0.012 ± 0.0014,-0.018 ± 0.0099,-0.0095 ± 0.016,-0.0055 ± 0.036,0.012 ± 0.016,0.0145 ± 0.042
